{"source": "patent US20050019386A1", "about": "(priority 2001, published 2005)", "key": {"[1]": {"test_system": "two human glioblastoma in a nude model", "details": "free form, 12.5 mg/kg/4 days; cited from earlier work"}, "[2]": {"test_system": "ovarian carcinoma (human) on a nude mouse", "test": "Oral application, tumour mass of human ovarian carcinoma on nude mouse", "assay_type": "in vivo", "details": "oral form of administration, Taxol 50 mg bolus"}}, "data": [{"smiles": "CC(=O)O[C@H]1C(=O)[C@@]2(C)[C@H]([C@H](OC(=O)c3ccccc3)[C@]3(O)C[C@H](OC(=O)[C@H](O)[C@@H](NC(=O)c4ccccc4)c4ccccc4)C(C)=C1C3(C)C)[C@]1(OC(C)=O)CO[C@@H]1C[C@@H]2O", "note": "[unencapsulated taxol, paclitaxel]", "values": [{"measurement": "growth of the tumour", "setting": "[1]", "value": "significant reduction of the growth of the tumour"}, {"measurement": "effectivity determined on the basis of the tumour mass", "setting": "[2]", "value": "hardly being reduced"}]}]}
